ChEMBL document CHEMBL1152405, “Bis-anthracenyl isoxazolyl amides have enhanced anticancer activity” (Bioorg Med Chem Lett, 2009)
pIC50: −log10 of the molar value.

Columns and labels:
[1] = test system: SNB-19; assay: Antitumor activity against human SNB19 cells after 24 hrs; type: functional, cell-based; conditions: SNB-19, 24 h
[2] = test system: EKVX; assay: Growth inhibition of human EKVX cells at 10 uM after 24 hrs by MTT assay relative to control; type: functional; parameters: scale not given: the % may be the effect or the level left
[3] = test system: HOP-62; assay: Growth inhibition of human HOP62 cells at 10 uM after 24 hrs by MTT assay relative to control; type: functional; parameters: scale not given: the % may be the effect or the level left
[4] = test system: HOP-92; assay: Growth inhibition of human HOP92 cells at 10 uM after 24 hrs by MTT assay relative to control; type: functional; parameters: scale not given: the % may be the effect or the level left
[5] = test system: COLO 205; assay: Growth inhibition of human COLO205 cells at 10 uM after 24 hrs by MTT assay relative to control; type: functional; parameters: scale not given: the % may be the effect or the level left
[6] = Growth inhibition of human Hs 578T cells at 10 uM after 24 hrs by MTT assay relative to control; type: functional; parameters: scale not given: the % may be the effect or the level left
[7] = test system: MDA-MB-435; assay: Growth inhibition of human MDA-MB-435 cells at 10 uM after 24 hrs by MTT assay relative to control; type: functional; parameters: scale not given: the % may be the effect or the level left
[8] = test system: MDA-MB-468; assay: Growth inhibition of human MDA-MB-468 cells at 10 uM after 24 hrs by MTT assay relative to control; type: functional; parameters: scale not given: the % may be the effect or the level left
[9] = test system: MOLT-4; assay: Growth inhibition of human MOLT4 cells at 10 uM after 24 hrs by MTT assay relative to control; type: functional; parameters: scale not given: the % may be the effect or the level left
[10] = test system: ACHN; assay: Growth inhibition of human ACHN cells at 10 uM after 24 hrs by MTT assay relative to control; type: functional; parameters: scale not given: the % may be the effect or the level left
[11] = test system: Malme-3M; assay: Growth inhibition of human MALME-3M cells at 10 uM after 24 hrs by MTT assay relative to control; type: functional; parameters: scale not given: the % may be the effect or the level left
[12] = test system: PC-3; assay: Growth inhibition of human PC3 cells at 10 uM after 24 hrs by MTT assay relative to control; type: functional; parameters: scale not given: the % may be the effect or the level left
[13] = test system: HL-60(TB); assay: Growth inhibition of human HL-60(TB) cells after 24 hrs by MTT assay; type: functional; conditions: HL-60, 24 h
[14] = test system: SR; assay: Growth inhibition of human SR cells after 24 hrs by MTT assay; type: functional
[15] = test system: NCI-H226; assay: Growth inhibition of human NCI-H226 cells after 24 hrs by MTT assay; type: functional; conditions: NCI-H226, 24 h
[16] = test system: NCI-H522; assay: Growth inhibition of human NCI-H522 cells after 24 hrs by MTT assay; type: functional; conditions: NCI-H522, 24 h
[17] = test system: COLO 205; assay: Growth inhibition of human COLO205 cells after 24 hrs by MTT assay; type: functional; conditions: COLO 205, 24 h
[18] = test system: HCC 2998; assay: Growth inhibition of human HCC2998 cells after 24 hrs by MTT assay; type: functional; conditions: HCC 2998, 24 h
[19] = test system: HT-29; assay: Growth inhibition of human HT-29 cells after 24 hrs by MTT assay; type: functional; conditions: HT-29, 24 h
[20] = test system: SW-620; assay: Growth inhibition of human SW620 cells after 24 hrs by MTT assay; type: functional; conditions: SW-620, 24 h
[21] = test system: SF-268; assay: Growth inhibition of human SF268 cells after 24 hrs by MTT assay; type: functional; conditions: SF-268, 24 h
[22] = test system: SF-295; assay: Growth inhibition of human SF295 cells after 24 hrs by MTT assay; type: functional; conditions: SF-295, 24 h
[23] = test system: LOX IMVI; assay: Growth inhibition of human LOXIMVI cells after 24 hrs by MTT assay; type: functional
[24] = test system: Malme-3M; assay: Growth inhibition of human MALME-3M cells after 24 hrs by MTT assay; type: functional
[25] = test system: SK-MEL-28; assay: Growth inhibition of human SK-MEL-28 cells after 24 hrs by MTT assay; type: functional; conditions: SK-MEL-28, 24 h
[26] = test system: SK-MEL-5; assay: Growth inhibition of human SK-MEL-5 cells after 24 hrs by MTT assay; type: functional; conditions: SK-MEL-5, 24 h
[27] = test system: OVCAR-8; assay: Growth inhibition of human OVCAR8 cells after 24 hrs by MTT assay; type: functional; conditions: OVCAR-8, 24 h
[28] = test system: NCI/ADR-RES; assay: Growth inhibition of human NCI/ADR-RES cells after 24 hrs by MTT assay; type: functional
[29] = test system: A498; assay: Growth inhibition of human A498 cells after 24 hrs by MTT assay; type: functional; conditions: A498, 24 h
[30] = test system: MDA-MB-231; assay: Growth inhibition of human MDA-MB-231 cells after 24 hrs by MTT assay; type: functional; conditions: MDA-MB-231, 24 h
[31] = test system: BT-549; assay: Growth inhibition of human BT549 cells after 24 hrs by MTT assay; type: functional; conditions: BT-549, 24 h
[32] = test system: MDA-MB-468; assay: Growth inhibition of human MDA-MB-468 cells after 24 hrs by MTT assay; type: functional; conditions: MDA-MB-468, 24 h
[33] = read-out: LC50 (the source's name)
[34] = read-out: pLC50 (the source's name) (converted)

With Cc1onc(-c2c3ccccc3c(Cl)c3ccccc23)c1C(=O)Nc1cc(C(=O)NCCCN(C)CCCNC(=O)c2cc(NC(=O)c3c(-c4c5ccccc5c(Cl)c5ccccc45)noc3C)cn2C)n(C)c1 the pIC50 [1] was 5.32, the Activity [2] was -58.5% and the Activity [3] was -87.55%. It also gave an Activity [4] of -16.66%, an Activity [5] of -100% and an Activity [6] of -71.85%. The Activity [7] was -100%, the Activity [8] was -100% and the Activity [9] was -100%. It also gave an Activity [10] of -100%, an Activity [11] of -86.28% and an Activity [12] of -100%. The TGI [13] was 8300 nM, the GI50 ([13]; read-out: GI50) was 1610 nM and the CC50 [13, 33] was 42000 nM. For the same molecule, the GI50 ([13]; read-out: pGI50 (converted)) was 1620 nM, the CC50 [13, 34] was 41700 nM and the LC50 [14] was 100000 nM. It also gave a TGI [14] of 2030 nM, a GI50 ([14]; read-out: GI50) of 394 nM and a GI50 ([14]; read-out: pGI50 (converted)) of 398 nM. The CC50 [14, 34] was over 100000 nM, the TGI [15] was 29400 nM and the GI50 ([15]; read-out: GI50) was 3150 nM. It also gave a CC50 [15, 33] of 100000 nM, a GI50 ([15]; read-out: pGI50 (converted)) of 3160 nM and a CC50 [15, 34] of over 100000 nM. The TGI [16] was 3510 nM, the GI50 ([16]; read-out: GI50) was 1590 nM and the GI50 ([16]; read-out: pGI50 (converted)) was 1580 nM. The TGI [17] was 2480 nM, the GI50 ([17]; read-out: GI50) was 1240 nM and the CC50 [17, 33] was 4980 nM. The GI50 ([17]; read-out: pGI50 (converted)) was 1230 nM, the CC50 [17, 34] was 5010 nM and the TGI [18] was 2940 nM. The GI50 ([18]; read-out: GI50) was 1590 nM, the CC50 [18, 33] was 5420 nM and the GI50 ([18]; read-out: pGI50 (converted)) was 1580 nM. It also gave a CC50 [18, 34] of 5370 nM, a TGI [19] of 2470 nM and a GI50 ([19]; read-out: GI50) of 1200 nM. The GI50 ([19]; read-out: pGI50 (converted)) was 1200 nM, the TGI [20] was 2750 nM and the GI50 ([20]; read-out: GI50) was 1440 nM. The CC50 [20, 33] was 5240 nM, the GI50 ([20]; read-out: pGI50 (converted)) was 1450 nM and the CC50 [20, 34] was 5250 nM. For the same molecule, the TGI [21] was 2900 nM, the GI50 ([21]; read-out: GI50) was 1390 nM and the GI50 ([21]; read-out: pGI50 (converted)) was 1380 nM. It also gave a TGI [22] of 3330 nM, a GI50 ([22]; read-out: GI50) of 1670 nM and a GI50 ([22]; read-out: pGI50 (converted)) of 1660 nM. For the same molecule, the TGI [23] was 2960 nM, the GI50 ([23]; read-out: GI50) was 1380 nM and the GI50 ([23]; read-out: pGI50 (converted)) was 1380 nM. The TGI [24] was 4270 nM, the GI50 ([24]; read-out: GI50) was 1930 nM and the GI50 ([24]; read-out: pGI50 (converted)) was 1950 nM. It also gave a TGI [25] of 2980 nM, a GI50 ([25]; read-out: GI50) of 1630 nM and a CC50 [25, 33] of 5460 nM. For the same molecule, the GI50 ([25]; read-out: pGI50 (converted)) was 1620 nM, the CC50 [25, 34] was 5500 nM and the TGI [26] was 2790 nM. It also gave a GI50 ([26]; read-out: GI50) of 1480 nM, a CC50 [26, 33] of 5280 nM and a GI50 ([26]; read-out: pGI50 (converted)) of 1480 nM. It also gave a CC50 [26, 34] of 5250 nM, a TGI [27] of 4090 nM and a GI50 ([27]; read-out: GI50) of 1970 nM. For the same molecule, the GI50 ([27]; read-out: pGI50 (converted)) was 2000 nM, the TGI [28] was over 100000 nM and the GI50 ([28]; read-out: GI50) was 13200 nM. The CC50 [28, 33] was 100000 nM, the GI50 ([28]; read-out: pGI50 (converted)) was 13200 nM and the CC50 [28, 34] was over 100000 nM. The TGI [29] was 17700 nM, the GI50 ([29]; read-out: GI50) was 2630 nM and the CC50 [29, 33] was 44400 nM. For the same molecule, the GI50 ([29]; read-out: pGI50 (converted)) was 2630 nM, the CC50 [29, 34] was 44700 nM and the TGI [30] was 2760 nM. It also gave a GI50 ([30]; read-out: GI50) of 1370 nM, a GI50 ([30]; read-out: pGI50 (converted)) of 1380 nM and a TGI [31] of 10200 nM. For the same molecule, the GI50 ([31]; read-out: GI50) was 2920 nM, the CC50 [31, 33] was 100000 nM and the GI50 ([31]; read-out: pGI50 (converted)) was 2950 nM. It also gave a CC50 [31, 34] of over 100000 nM, a TGI [32] of 2780 nM and a GI50 ([32]; read-out: GI50) of 1330 nM. It also gave a CC50 [32, 33] of 5810 nM, a GI50 ([32]; read-out: pGI50 (converted)) of 1320 nM and a CC50 [32, 34] of 5750 nM.
